Assay [1] has as its target E. coli LpxC (Escherichia coli (strain K12), UniProt P0A725). Nature of the assay: in vitro substrate deacetylation assay for inhibition of LpxC (ADDA analysis). It is filed as biochemical. Conditions: 5 nM E. coli LpxC, 2.5 μM substrate, 1 hour at room temperature. The procedure:
(§1) Exemplary compounds from the above Examples were tested for ability to inhibit LpxC activity using an in vitro substrate deacetylation assay with ADDA™ analysis. Assay procedures and results are described below.
Dilutions of test compound were pre-incubated with 5 nM P. aeruginosa or E. coli LpxC for 10 minutes at room temperature in 50 mM NaH2PO4, 500 mM sucrose, 0.2 mg/mL BSA, pH 7.2 and <1% DMSO. Reactions were initiated by the addition of 2× substrate (UDP-3-O—(R-3-hydroxydecanoyl)-N-acetylglucosamine, Carbosynth Ltd, UK, for P. aeruginosa LpxC and UDP-3-O—(R-3-hydroxymyristoyl)-N-acetylglucosamine, BOC Sciences, USA, for E. coli LpxC), in 50 mM NaH2PO4, 0.5 mg/mL BSA, pH 7.2, to a final concentration of 2.5 μM. Reactions proceeded for 1 hour at room temperature prior to quenching with and equal volume of 2% acetic acid.
For ADDA™ analysis, an aliquot of assay sample was withdrawn from each well of the 384-well plate and applied to a Hypercarb cartridge (Optimize Technologies, USA) under conditions designed to retain analytes of interest. Analytes were eluted using 1:1:2 acetone:acetonitrile:water containing 5 mM ammonium acetate then analysed by triple-quadrupole mass spectrometry. Mass spectrometry was carried out using electrospray ionization in negative ion mode. Daughter ion peaks representing detected substrate (P. aeruginosa: parent Q1 mass=775.8 amu, daughter Q3 mass=384.7 amu E. coli: parent Q1 mass=833.0 amu, daughter Q3 mass=385.0 amu, collision energy=analyte specific, dwell time=50 ms) were identified using a multiple-reaction monitoring protocol.
Total activity (0% inhibition) was obtained from reactions containing no compound, and 100% inhibition is defined as reactions in the presence of 1 μM CHIR-090 (N-[(1S,2R)-2-hydroxy-1-[(hydroxyamino)carbonyl]propyl]-4-[2-[4-(4-morpholinylmethyl)phenyl]ethynyl]-benzamide). For IC50 determinations, peak areas of the substrate and product were compared to compute the proportion of substrate reacted by the LpxC enzyme at each compound concentration. The fractional activity was converted to percentage inhibition and plotted against compound concentration in ActivityBase™ and fit using a four-parameter logistic using non-linear regression to yield the IC50 value.

For assay [2], the target named is P. aeruginosa LpxC (Pseudomonas aeruginosa (strain ATCC 15692 / DSM 22644 / CIP 104116 / JCM 14847 / LMG 12228 / 1C / PRS 101 / PAO1), UniProt P47205). Nature of the assay: biochemical. It is filed as biochemical. To be noted: 5 nM P. aeruginosa LpxC, 2.5 μM substrate, 1 hour at room temperature. The procedure: as §1
For ADDA™ analysis, an aliquot of assay sample was withdrawn from each well of the 384-well plate and applied to a Hypercarb cartridge (Optimize Technologies, USA) under conditions designed to retain analytes of interest. Analytes were eluted using 1:1:2 acetone:acetonitrile:water containing 5 mM ammonium acetate then analysed by triple-quadrupole mass spectrometry. Mass spectrometry was carried out using electrospray ionization in negative ion mode.
For IC50 determinations, peak areas of the substrate and product were compared to compute the proportion of substrate reacted by the LpxC enzyme at each compound concentration.

Assay [3] has as its system E. coli BW25113 isogenic mutant deficient in acrA mediated efflux. The experiment in a line: broth microdilution minimum inhibition concentration assay. To be noted: Escherichia coli, BW25113, read-out: E. coli KO MIC. It is filed as cell-based. As to the method: (§2) Exemplary compounds from the above Examples were tested to determine their minimum inhibitory concentration (MIC) for exemplary strains of Eschericia and Pseudomonas bacteria using broth microdilution methods. Assay procedures and results are described below.
(§3) Broth microdilution assays were conducted according to Clinical and Laboratory Standards Institute guidelines (CLSI, M07-A11: Clinical and Laboratory Standards Institute. Methods for Dilution Antimicrobial Susceptibility Tests for Bacteria that Grow Aerobically; Approved Standard—11th Edition. Wayne, PA: CLSI, 2018.). Briefly, a 0.5 McFarland standard suspension was made from bacterial isolates on non-selective, solid media. The inocula were adjusted to give a bacterial concentration of 1×10^6 CFU/mL. Serial doubling-dilutions of each compound were prepared in cation-adjusted Mueller-Hinton broth (Sigma-Aldrich) in 96-well microdilution plates. A 50 μL aliquot of the inoculum was added to each microdilution plate and, within 15 minutes, incubated at 37° C. in air for 16-20 h. […] The test was controlled by the determination of piperacillin MIC against both E. coli ATCC 25922 and P. aeruginosa ATCC 27853 and ensuring accordance with the ranges published in CLSI supplementary document M100 (CLSI, M100Ed29: Clinical and Laboratory Standards Institute. Performance Standards for Antimicrobial Susceptibility Testing, 29th Edition. Wayne, PA: CLSI, 2018.).
(§4) Multiple enterobacteriaceae strains were tested, including E. coli ATCC 25922 and K. pneumoniae ATCC 43816. WT E. coli BW25113 was tested with an isogenic mutant deficient in acrA mediated efflux by clean deletion. WT P. aeruginosa PAO1 was tested with an isogenic mutant deficient in MexA mediated efflux by clean deletion.
(§5) Experimental results are provided in Table 4, which provides MIC values for wild-type E. coli BW25113 (“E. coli WT MIC”), an isogenic mutant deficient in acrA mediated efflux by clean deletion (“E. coli KO MIC”), wild-type P. aeruginosa PAO1 (“P. aeruginosa WT MIC”), and an isogenic mutant deficient in MexA mediated efflux by clean deletion (“[…]”).
In general terms: Broth dilution looks for growth in wells or tubes with falling amounts of substance.

The subject of assay [4] is P. aeruginosa PAO1 isogenic mutant deficient in MexA mediated efflux. The description is as above. It is filed as cell-based. To be noted: Pseudomonas aeruginosa, PAO1, read-out: P. aeruginosa KO MIC. The procedure:
as §2, §3, §4, §5

Assay [5] concerns wild-type E. coli BW25113. The description is as above. The assay is classed as cell-based. To be noted: Escherichia coli; wild-type E. coli BW25113, 37° C. 16-20 h; read-out: E. coli WT MIC. The procedure: as §2, §3, §4, §5
Assay [6] relates to wild-type P. aeruginosa PAO1. The description is as above. The assay is classed as cell-based. Conditions: Pseudomonas aeruginosa. The procedure:
as §2, §3, §4, §5

Where [7] appears, read: PAO1, read-out: P. aeruginosa WT MIC.
[8] abbreviates: wild-type P. aeruginosa PAO1, 37° C. 16-20 h, read-out: P. aeruginosa WT MIC.

In brackets after ≈: the same amount, converted by molar mass. Like-named read-outs stand apart in the source and are kept apart here. Where only a bound is given, the exact number is not on record here.

Chain of E. coli LpxC (P0A725 whole entry): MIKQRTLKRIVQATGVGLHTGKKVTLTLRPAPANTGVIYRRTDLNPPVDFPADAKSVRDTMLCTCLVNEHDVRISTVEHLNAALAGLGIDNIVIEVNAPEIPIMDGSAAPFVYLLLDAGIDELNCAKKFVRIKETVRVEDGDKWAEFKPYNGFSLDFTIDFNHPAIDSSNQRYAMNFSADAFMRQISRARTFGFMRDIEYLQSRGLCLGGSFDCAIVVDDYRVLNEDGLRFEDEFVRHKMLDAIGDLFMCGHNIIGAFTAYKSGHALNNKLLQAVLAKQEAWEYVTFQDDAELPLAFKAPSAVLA

Regarding `CC(C)C(=O)N1C[C@H](NC(=O)[C@H]2NCC[C@@H]2O)C[C@@H]1C(=O)NCc1ccc(C#CC#CC2CC2)cc1` [Example 9AB], the IC50 (commonly the concentration needed to halve the response being measured) in assay [1] is 500 to 2500 nM; in assay [2] it was below 50 nM. In addition, the MIC – broadly, the smallest concentration in the dilution series that meets the test's criterion for growth inhibition – in assay [3] was 20 to 100 µM (≈ 9.81 to 49.1 µg/mL); in assay [4] it was 20 to 100 µM (≈ 9.81 to 49.1 µg/mL); in assay [5], above 100 µM; in assay [6] (setting [7]) it was above 100 µM.
Take `O=C(N[C@@H]1C[C@H](C(=O)NCc2ccc(C#CC#CC3CC3)cc2)N(CCO)C1)[C@@H]1C[C@H](F)CN1` [Example 9AQ]: the 50% inhibitory concentration (IC50) in assay [1] lay within 2500 to 10000 nM; in assay [2], 100 to 1000 nM. Also, the MIC in assay [3], in assay [4], in assay [5] and in assay [6] (setting [7]) was above 100 µM each time.
For the molecule `CC(C)C(=O)N1C[C@H](NC(=O)[C@@H]2C[C@@H](C#N)CN2)C[C@@H]1C(=O)NCc1ccc(C#Cc2ccc(CN3CCOCC3)cc2)cc1` [Example 9AC, (2R,4R)-4-((2S,4R)-4-Cyanopyrrolidine-2-carboxamido)-1-isobutyryl-N-(4-((4-(morpholinomethyl)phenyl)ethynyl)benzyl)pyrrolidine-2-carboxamide], the IC50 is 500 to 2500 nM in assay [1] and below 50 nM in assay [2]. Also, the MIC in assay [3], in assay [4], in assay [5] and in assay [6] (setting [8]) was above 100 µM each time.
`Cc1cc(C#Cc2ccc(CN3CCOCC3)cc2)ccc1C(=O)NC[C@H]1C[C@@H](NC(=O)[C@@H]2C[C@H](F)CN2)CN1C(=O)C1CC1` [Example 7, (2S,4S)—N-((3R,5R)-1-(Cyclopropanecarbonyl)-5-((2-methyl-4-((4-(morpholinomethyl)phenyl)ethynyl)benzamido)methyl)pyrrolidin-3-yl)-4-fluoropyrrolidine-2-carboxamide]: the IC50 in assay [1] is below 500 nM; in assay [2], 50 to 100 nM. For the same molecule, the minimal inhibitory concentration (MIC) is below 20 µM in assay [3], below 20 µM in assay [4], below 20 µM in assay [5] and above 100 µM in assay [6] (setting [7]).
Take `NCCC(=O)N1C[C@H](NC(=O)[C@@H]2C[C@H](F)CN2)C[C@@H]1C(=O)NCc1ccc(C#CC#CC2CC2)cc1` [Example 9M]: the IC50 fell in the range of 2500 to 10000 nM in assay [1] and 50 to 100 nM in assay [2]. For the same molecule, the MIC in assay [3], in assay [4], in assay [5] and in assay [6] (setting [7]) was above 100 µM throughout.
As to `CC(C)C(=O)N1C[C@H](NC(=O)[C@@H]2C[C@H](O)CN2)C[C@@H]1C(=O)NCc1ccc(C#Cc2ccc(CN3CCOCC3)cc2)cc1` [Example 9T, (2R,4R)-4-((2S,4S)-4-Hydroxypyrrolidine-2-carboxamido)-1-isobutyryl-N-(4-((4-(morpholinomethyl)phenyl)ethynyl)benzyl)pyrrolidine-2-carboxamide], the values for the IC50 in assay [1] and in assay [2] were 2500 to 10000 nM and 100 to 1000 nM, respectively. Besides, the MIC in assay [3], in assay [4], in assay [5] and in assay [6] (setting [7]) was above 100 µM in each case.
Regarding `COC(=O)N1C[C@H](NC(=O)[C@@H]2C[C@H](F)CN2)C[C@@H]1C(=O)NCc1ccc(C#CC#CC2CC2)cc1` [Example 9R], the IC50 was 500 to 2500 nM in assay [1] and below 50 nM in assay [2]. The MIC is below 20 µM in assay [3], below 20 µM in assay [4], above 100 µM in assay [5] and above 100 µM in assay [6] (setting [8]).
`CNCCC(=O)N1C[C@H](NC(=O)[C@@H]2C[C@H](F)CN2)C[C@@H]1C(=O)NCc1ccc(C#CC#CC2CC2)cc1` [Example 9Q]: the IC50 was in the range of 2500 to 10000 nM in assay [1] and 50 to 100 nM in assay [2]. In addition, the MIC in assay [3], in assay [4], in assay [5] and in assay [6] (setting [7]) was above 100 µM in each case.
`O=C(NC[C@H]1C[C@@H](NC(=O)[C@@H]2C[C@H](F)CN2)CN1C(=O)C1CC1)c1ccc(C#Cc2ccc(CN3CCOCC3)cc2)cc1Cl` [Example 6, (2S,4S)—N-((3R,5R)-5-((2-Chloro-4-((4-(morpholinomethyl)phenyl)ethynyl)benzamido)methyl)-1-(cyclopropanecarbonyl)pyrrolidin-3-yl)-4-fluoropyrrolidine-2-carboxamide]: the IC50 is below 500 nM in assay [1] and 50 to 100 nM in assay [2]. For the same molecule, the MIC in assay [3] was below 20 µM; in assay [4], below 20 µM; in assay [5] it was below 20 µM; in assay [6] (setting [7]) it was above 100 µM.
For `CC(C)C(=O)N1C[C@H](NC(=O)[C@@H]2CC(F)(F)CN2)C[C@@H]1C(=O)NCc1ccc(C#Cc2ccccc2)cc1` [Example 9C], the IC50 in assay [1] lay in the range of 500 to 2500 nM; in assay [2], 100 to 1000 nM. Also, the MIC in assay [3] is 20 to 100 µM (≈ 10.5 to 52.3 µg/mL); in assay [4], above 100 µM; in assay [5] it was above 100 µM; in assay [6] (setting [7]), above 100 µM.
Consider `CNC(=O)N1C[C@H](NC(=O)[C@@H]2C[C@H](F)CN2)C[C@@H]1C(=O)NCc1ccc(C#Cc2ccc(CN3CCOCC3)cc2)cc1` [Example 9AR], for which the values for the IC50 in assay [1] and in assay [2] were below 500 nM and below 50 nM, respectively. Further, the MIC in assay [3] was 20 to 100 µM (≈ 11.8 to 59.1 µg/mL); in assay [4], below 20 µM; in assay [5], above 100 µM; in assay [6] (setting [8]), above 100 µM.
In the case of `CC(C)C(=O)N1C[C@H](NC(=O)[C@@H]2CC(F)(F)CN2)C[C@@H]1C(=O)NCc1ccc(C#Cc2ccc(CN3CCOCC3)cc2)cc1` [Example 9F], the half-inhibitory concentration (IC50) in assay [1] fell in the range of 500 to 2500 nM; in assay [2], 50 to 100 nM. Also, the MIC is 20 to 100 µM (≈ 12.4 to 62.2 µg/mL) in assay [3], 20 to 100 µM (≈ 12.4 to 62.2 µg/mL) in assay [4], above 100 µM in assay [5] and above 100 µM in assay [6] (setting [7]).
On to `CN(C)C(=O)N1C[C@H](NC(=O)[C@@H]2C[C@H](F)CN2)C[C@@H]1C(=O)NCc1ccc(C#Cc2ccc(CN3CCOCC3)cc2)cc1` [Example 9AH], for which the values for the IC50 in assay [1] and in assay [2] were 500 to 2500 nM and below 50 nM, respectively. Also, the MIC is 20 to 100 µM (≈ 12.1 to 60.5 µg/mL) in assay [3], below 20 µM in assay [4], above 100 µM in assay [5] and above 100 µM in assay [6] (setting [8]).

The values above are taken from patent US20250171400A1, “AZA-HETEROCYCLYL CARBOXAMIDE AND RELATED COMPOUNDS AND THEIR USE IN TREATING MEDICAL CONDITIONS” (X-BIOTIX THERAPEUTICS, INC., priority 2021, published 2025).
